In patent publication US8609680B2, “2,3-dihydro-1H-inden-1-yl-2,7-diazaspiro[3.5] nonane derivatives” (Pfizer Inc., priority 2010, dated 2013):
Like-named read-outs stand apart in the source and are kept apart here.

Experiments:
[1] = target: T1, human GHSR1a (Homo sapiens, UniProt Q92847); assay: Human Ghrelin SPA Binding Assay
T1 construct: expressed in transfected cells; host or cells: HEK293 Tetracycline-Inducible cell line, used as membranes
Source text: The SPA format was utilized for high throughput screening of test compounds and filter binding served for more comprehensive binding characterization.
Human Ghrelin SPA Binding Assay

[2] = target: T1, human GHSR1a; assay: Human Ghrelin Functional Assay (DELFIA GTP-binding assay); format: biochemical; conditions: GTP-Europium exchange, human GHSR1a membranes, with and without ghrelin at EC80
Experimental: Human Ghrelin Functional Assay
To measure the ability of test compounds in the present invention to modulate the activity of human GHSR1a (agonize, antagonize, partially agonize, inversely agonize), a DELFIA GTP-binding assay (Perkin Elmer, AD0260 and AD0261) is performed. The assay monitors the ligand-dependent exchange of GDP for GTP. GPCR activation results in an increase in fluorescence as receptor-bound GDP is replaced by Europium-labeled GTP.
Ghrelin functional assays are performed in a final volume of 39.5 μl containing 720 ng human GHSR1a (HEK293 Tetracycline-Inducible cell line expressing the human growth secretagogue receptor la, prepared as membranes), 9 nM GTP-Europium and varying concentrations of test compound or vehicle. To test for receptor antagonism, membranes are incubated in the presence of agonist ghrelin (Anaspec, 24158) at the EC80 concentration, plus test compound or vehicle.
Briefly, test compounds are prepared at room temperature in 384-well plates (Matrix, 4340). […] Samples are then transferred as 6 μl to 384-well filter plates (Pall, 5071) containing 30 μl of 24 μg/ml hGHSR1a membrane and 0.35 mg/ml saponin (Perkin Elmer, AD0261) in basal buffer.
The mixture is incubated 24 minutes at room temperature with gentle shaking, followed by the addition of 3.5 μl of 100 nM GTP-Europium in 50 mM HEPES, pH 7.4. Samples are shielded from light and incubated for 90 minutes further at room temperature with gentle shaking. The reactions are suctioned dry with vacuum, washed three times with 75 μl ice cold 1× GTP Wash Solution (Perkin Elmer, AD0261), and immediately read on the Envision 2101 Multilabel Reader (Perkin Elmer) using excitation filter 320 nm and emission filter 615 nm.

[3] = SPA format, [125I] ghrelin displacement, human GHSR1a membranes, Ki=IC50/(1+[ligand]/Kd)

T1 sequence (Q92847 whole entry): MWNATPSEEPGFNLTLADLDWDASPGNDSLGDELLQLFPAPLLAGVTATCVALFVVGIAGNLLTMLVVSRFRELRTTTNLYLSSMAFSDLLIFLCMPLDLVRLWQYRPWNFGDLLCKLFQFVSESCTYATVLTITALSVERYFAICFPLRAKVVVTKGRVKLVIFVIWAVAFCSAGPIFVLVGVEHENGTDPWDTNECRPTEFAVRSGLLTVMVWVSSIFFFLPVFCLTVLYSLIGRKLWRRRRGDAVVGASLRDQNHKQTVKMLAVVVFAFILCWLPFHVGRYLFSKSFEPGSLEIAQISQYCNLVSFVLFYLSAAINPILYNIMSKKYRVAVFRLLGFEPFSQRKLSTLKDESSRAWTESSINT

Row | Ki [1] [nM] | IC50 ([1]; SPA format, [125I] ghrelin displacement, human GHSR1a membranes from HEK293 Tetracycline-Inducible cell line) [nM] | functional comment [2] | IC50 [1] [nM] | Ki [1, 3] [nM] | SMILES
1 | 4.37 | 5.02 | inverse agonist |  |  | Cc1cc(-c2ccc3c(c2)CC[C@H]3N2CC3(CCN(C(=O)Cc4cn5cc(C)sc5n4)CC3)C2)ncn1 [Example 3F]
2 |  |  | inverse agonist | 21.2 |  | COc1ccc(CC(=O)N2CCC3(CC2)CN([C@@H]2CCc4cc(-c5ncccn5)ccc42)C3)nc1 [Example 3G]
3 |  |  | inverse agonist | 9.51 | 9.17 | COc1ccc(CC(=O)N2CCC3(CC2)CN([C@@H]2CCc4cc(-c5ncc(C)cn5)ccc42)C3)nc1 [Example 3H]
4 |  |  | inverse agonist | 31 | 27.8 | Cc1ccc(CC(=O)N2CCC3(CC2)CN([C@@H]2CCc4cc(-c5ncccn5)ccc42)C3)nc1 [Example 3I]
5 | 20.2 |  | inverse agonist | 23 |  | Cc1cc(-c2ccc3c(c2)CC[C@H]3N2CC3(CCN(C(=O)Cc4cn5ccccc5n4)CC3)C2)ncn1 [Example 3L]
6 | 71.3 |  | inverse agonist | 82.6 |  | COc1ccc(CC(=O)N2CCC3(CC2)CN([C@@H]2CCc4cc(-c5ccn(C)n5)ccc42)C3)nc1 [Example 3N]
7 | 15.3 |  | inverse agonist | 17.8 |  | COc1ccc(CC(=O)N2CCC3(CC2)CN([C@@H]2CCc4cc(-c5nccc(C)n5)ccc42)C3)nc1 [Example 3S]
8 | 6.9 |  | inverse agonist | 8.08 |  | Cc1ccnc(-c2ccc3c(c2)CC[C@H]3N2CC3(CCN(C(=O)Cc4ccc5c(n4)OCCO5)CC3)C2)n1 [Example 3U]
9 | 14.8 |  | inverse agonist | 17.2 |  | CCc1cnc(-c2ccc3c(c2)CC[C@H]3N2CC3(CCN(C(=O)Cc4ccc(OC)cc4)CC3)C2)nc1 [Example 3W]
10 | 31.6 |  | inverse agonist | 36.6 |  | Cc1ccn2cc(CC(=O)N3CCC4(CC3)CN([C@@H]3CCc5cc(-c6ncccn6)ccc53)C4)nc2c1 [Example 3X]
11 | 6.07 |  | inverse agonist | 6.78 |  | Cc1cc(-c2ccc3c(c2)CC[C@H]3N2CC3(CCN(C(=O)Cc4cn5nc(C)sc5n4)CC3)C2)ncn1 [Example 3Z, 7-[(2-methylimidazo[2,1-b][1,3,4]thiadiazol-6-yl)acetyl]-2-[(1R)-5-(6-methylpyrimidin-4-yl)-2,3-dihydro-1H-inden-1-yl]-2,7-diazaspiro[3.5]nonane]
12 | 10.4 |  | inverse agonist | 11.5 |  | CCc1ccc(CC(=O)N2CCC3(CC2)CN([C@@H]2CCc4cc(-c5ncccn5)ccc42)C3)nc1 [Example 5B]
13 |  |  | inverse agonist |  | 10.5 | Cc1ccc(CC(=O)N2CCC3(CC2)CN([C@@H]2CCc4cc(-n5nccn5)ccc42)C3)nc1 [Example 5C]
14 | 33 |  | inverse agonist | 39.9 |  | COc1ccc(CC(=O)N2CCC3(CC2)CN([C@@H]2CCc4cc(-c5cc(C)nc(C)n5)ccc42)C3)nc1 [Example 5G]
15 | 32.4 |  | inverse agonist | 37.2 |  | Cc1ccn2cc(CC(=O)N3CCC4(CC3)CN([C@@H]3CCc5cc(-n6nccn6)ccc53)C4)nc2c1 [Example 6C]
16 |  |  | inverse agonist | 3.44 | 3.32 | COc1ccc(CC(=O)N2CCC3(CC2)CN([C@@H]2CCc4cc(-n5nccn5)ccc42)C3)nc1 [Example 6D]
17 | 3.09 |  | inverse agonist | 3.77 |  | COc1ccc(CC(=O)N2CCC3(CC2)CN([C@@H]2CCc4cc(-n5nccn5)ccc42)C3)cc1 [Example 6E]
18 | 5.18 |  | inverse agonist | 6.08 |  | Cc1cn2cc(CC(=O)N3CCC4(CC3)CN([C@@H]3CCc5cc(-n6nccn6)ccc53)C4)nc2s1 [Example 6F]
19 | 19.4 |  | inverse agonist | 21.7 |  | COc1ccc(CC(=O)N2CCC3(CC2)CN([C@@H]2CCc4cc(-n5nccn5)ccc42)C3)c(NC(C)=O)c1 [Example 6H]
20 | 20.2 |  | inverse agonist | 22.8 |  | Cc1ccn2cc(CC(=O)N3CCC4(CC3)CN([C@@H]3CCc5cc(-c6ccc(C(N)=O)nc6)ccc53)C4)nc2c1 [Example 9F]
21 | 8.86 |  | inverse agonist | 9.98 |  | NC(=O)c1ccc(-c2ccc3c(c2)CC[C@H]3N2CC3(CCN(C(=O)Cc4ccc(C5CC5)cn4)CC3)C2)cn1 [Example 10E]
22 | 14.2 |  | inverse agonist | 15.8 |  | Cc1nn2cc(CC(=O)N3CCC4(CC3)CN([C@@H]3CCc5cc(-c6ccc(C(N)=O)nc6)ccc53)C4)nc2s1 [Example 10F]
23 | 53.8 |  | inverse agonist | 60.1 |  | Cc1ccn2cc(CC(=O)N3CCC4(CC3)CN([C@@H]3CCc5cc(-c6cc(C(N)=O)ncn6)ccc53)C4)nc2c1 [Example 10G]
